The record followed here is US20230067609A1, “ENDOPHYTIC MICROBES FOR GROWTH PROMOTION OF CROP PLANTS AND SUPPRESSION OF AGGRESSIVE INVASIVE PLANT SPECIES, BIOHERBICIDES COMPRISING THE SAME AND METHODS OF USE THEREOF” (priority 2018, published 2023).

Type in all cases: in vivo
Assay [1] relates to Phragmites australis plants. Put plainly: Sodium butyrate applied to roots over a 6-week period. Conditions: 10 mM applied to roots over a 6-week period.
For assay [2], the system named is Poa annua. Put plainly: Screen of short-chain organic acids for effects on roots, agarose medium, seeds inoculated with Pseudomonas strain SLB4. Conditions: for Inhibitory Activity On Germination / Inhibitory Activity On Gravitropism / Inhibitory Activity On Hair Length / Inhibitory Activity On Root Length / Inhibitory Activity On Bact. Entry: organic acids 0-1 mM in 0.7% agarose, 7 days; for Inhibitory Activity On Bact. Entry: Pseudomonas strain SLB4.

Assay [3] relates to Poa reptans seedlings. Put plainly: Seeds germinated on agarose with and without 0.05% arginine. From the text: In laboratory experiments, we germinated seeds of the grass Poa reptans on agarose with and without 0.05% arginine.
This is further evidence that exposure of plants to arginine results in excess production of reactive oxygen species (ROS).

Regarding `CCCC(=O)[O-].[Na+]` [sodium butyrate], the “effects on roots and shoots” value in assay [1] was “suppression of root and shoot growth, reduced root branching, root browning, and increased bacterial and fungal growth on roots”.
Turning to `O=C(O)c1ccccc1` [Benzoic, Benzoic acid], in assay [2], the seedling growth inhibition entry is listed as “seedling growth inhibition occurred”, the “Inhibitory Activity On Germination” value is “No”, the “Inhibitory Activity On Gravitropism” value is on record as “Yes” and the “Inhibitory Activity On Hair Length” value is “Yes”. Also, in assay [2], the “Inhibitory Activity On Root Length” value is reported as “Yes” and the “Inhibitory Activity On Bact. Entry” value is reported as “No”.
With `O=C(O)C(=O)O` [Oxalic, Oxalic acid], in assay [2], the seedling growth inhibition entry is recorded as “seedling growth inhibition occurred”, the “Inhibitory Activity On Germination” value is “No”, the “Inhibitory Activity On Gravitropism” value is recorded as “Yes” and the “Inhibitory Activity On Hair Length” value was “Yes”. Moreover, in assay [2], the “Inhibitory Activity On Root Length” value is “Yes” and the “Inhibitory Activity On Bact. Entry” value is given as “Yes”.
For the molecule `CCCC(=O)O` [Butyric, Butyric acid], in assay [2], the seedling growth inhibition result is “seedling growth inhibition occurred”, the “Inhibitory Activity On Germination” value is “No”, the “Inhibitory Activity On Gravitropism” value is “Yes” and the “Inhibitory Activity On Hair Length” value was “Yes”. In assay [2], the “Inhibitory Activity On Root Length” value is recorded as “Yes” and the “Inhibitory Activity On Bact. Entry” value is on record as “Yes”.
Regarding `CCCCCC(=O)O` [Hexanoic, Hexanoic acid], in assay [2], the seedling growth inhibition result is given as “seedling growth inhibition occurred”, the “Inhibitory Activity On Germination” value is listed as “No”, the “Inhibitory Activity On Gravitropism” value is given as “Yes” and the “Inhibitory Activity On Hair Length” value is recorded as “Yes”. Also, in assay [2], the “Inhibitory Activity On Root Length” value was “Yes” and the “Inhibitory Activity On Bact. Entry” value is reported as “No”.
With `O=C(O)CC(O)(CC(=O)O)C(=O)O` [Citric, Citric acid], in assay [2], the seedling growth inhibition entry is listed as “seedling growth inhibition occurred”, the “Inhibitory Activity On Germination” value was “No”, the “Inhibitory Activity On Gravitropism” value is reported as “Yes” and the “Inhibitory Activity On Hair Length” value is listed as “Yes”. In assay [2], the “Inhibitory Activity On Root Length” value is “Yes” and the “Inhibitory Activity On Bact. Entry” value is listed as “No”.
On to `CC(=O)O` [Acetic, Acetic acid], for which, in assay [2], the seedling growth inhibition entry is given as “seedling growth inhibition occurred”, the “Inhibitory Activity On Germination” value was “No”, the “Inhibitory Activity On Gravitropism” value is “No” and the “Inhibitory Activity On Hair Length” value is given as “No”. Also, in assay [2], the “Inhibitory Activity On Root Length” value is reported as “Yes” and the “Inhibitory Activity On Bact. Entry” value was “No”.
With `N=C(N)NCCC[C@H](N)C(=O)O` [arginine], in assay [3] (0.05% arginine), the “chlorophylls in shoot cells” value is on record as “lack evidence of chlorophylls”. Further, in assay [3] (0.05% arginine in agarose, 7 days), the “growth of shoots and roots” value was “repression of shoots and roots”. The “colonization of chloroplasts by bacteria” value in assay [3] (0.05% arginine, leaf cells, microscopy) is “all chloroplasts were colonized by actively motile bacteria”. In addition, the root hairs result in assay [3] (arginine-treated seedlings) was “longer root hairs”. The “hydrogen peroxide around roots” value in assay [3] (diaminobenzidine tetrahydrochloride stain) was “high levels of hydrogen peroxide around roots”. Further, the superoxide in roots result in assay [3] (nitro blue tetrazolium staining) is on record as “higher presence of superoxide”.
Take `O=C(O)[C@]1(O)C[C@@H](O)[C@@H](O)[C@H](O)C1` [Quinic, Quinic acid]: in assay [2], the “Inhibitory Activity On Germination” value is reported as “No”, the “Inhibitory Activity On Gravitropism” value is given as “No”, the “Inhibitory Activity On Hair Length” value was “No” and the “Inhibitory Activity On Root Length” value is “No”. Further, the “Inhibitory Activity On Bact. Entry” value in assay [2] is “No”.
With `CCC(=O)O` [Propionic, Propionic acid], in assay [2], the seedling growth inhibition result is “seedling growth inhibition occurred”, the “Inhibitory Activity On Germination” value is reported as “No”, the “Inhibitory Activity On Gravitropism” value is reported as “Yes” and the “Inhibitory Activity On Hair Length” value is “Yes”. In assay [2], the “Inhibitory Activity On Root Length” value is on record as “Yes” and the “Inhibitory Activity On Bact. Entry” value was “Yes”.
